Results taken from paper PMC11904221 (EMBO Molecular Medicine, 2025).

Assays:
[1] = target: T1, CYP2C8 (Homo sapiens, UniProt P10632); conditions: reference compound, Hill coefficient
T1 sequence (P10632 1-490): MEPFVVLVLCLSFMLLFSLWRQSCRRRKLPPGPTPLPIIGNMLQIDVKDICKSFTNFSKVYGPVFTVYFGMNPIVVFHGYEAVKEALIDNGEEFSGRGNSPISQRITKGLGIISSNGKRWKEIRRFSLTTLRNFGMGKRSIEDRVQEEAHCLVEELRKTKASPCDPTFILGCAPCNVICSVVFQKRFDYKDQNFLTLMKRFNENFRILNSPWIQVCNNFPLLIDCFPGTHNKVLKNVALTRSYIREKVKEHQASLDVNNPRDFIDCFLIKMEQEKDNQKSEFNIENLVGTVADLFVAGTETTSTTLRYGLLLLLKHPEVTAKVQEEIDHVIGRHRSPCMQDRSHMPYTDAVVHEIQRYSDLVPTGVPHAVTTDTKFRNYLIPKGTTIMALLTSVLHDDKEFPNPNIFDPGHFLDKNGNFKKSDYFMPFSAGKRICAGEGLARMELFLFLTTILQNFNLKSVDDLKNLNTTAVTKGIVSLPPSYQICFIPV

[2] = target: CYP2C9 (Homo sapiens, UniProt P11712)
Chain of CYP2C9 (P11712 whole entry): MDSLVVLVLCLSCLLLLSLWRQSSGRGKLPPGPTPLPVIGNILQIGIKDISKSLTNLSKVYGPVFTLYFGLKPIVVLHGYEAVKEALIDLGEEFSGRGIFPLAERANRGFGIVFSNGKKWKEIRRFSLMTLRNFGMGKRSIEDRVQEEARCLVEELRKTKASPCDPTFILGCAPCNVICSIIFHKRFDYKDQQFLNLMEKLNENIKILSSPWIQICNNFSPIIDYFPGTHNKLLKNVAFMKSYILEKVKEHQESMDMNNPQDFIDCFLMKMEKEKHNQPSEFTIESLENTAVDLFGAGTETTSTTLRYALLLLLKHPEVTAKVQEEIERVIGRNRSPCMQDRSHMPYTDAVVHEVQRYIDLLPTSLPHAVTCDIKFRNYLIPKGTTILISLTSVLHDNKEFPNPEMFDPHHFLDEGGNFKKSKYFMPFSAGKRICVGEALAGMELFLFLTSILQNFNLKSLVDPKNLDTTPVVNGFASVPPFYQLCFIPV

nH [1]	Structure (SMILES)	nH [2]
2.5	O=c1c(O)c(-c2ccc(O)c(O)c2)oc2cc(O)cc(O)c12 [Quercetin]	
	Nc1ccc(S(=O)(=O)Nc2ccnn2-c2ccccc2)cc1 [Sulfaphenazole]	0.6
